Results published in publication PMC8272242 (Molecules, 2021).

Assay: thermal stability during DSC measurements (FTIR-ATR and weight before and after)
Type: physicochemical
Conditions: across the range of temperatures used in the DSC study (solid and melt)
Method: No polymorphs or solvates have so far been reported. However, in order to confirm that no crystal phase or pseudo-polymorphic transitions occurred during solubility measurements, the sediments collected after flask-shake experiments were analyzed using DSC and FTIR-ATR techniques. The results of these measurements are summarized in supplementary materials in Figures S1 and S2. The solvate formation can be identified by the absorption band shifts on the IR spectra. With DSC thermograms, the formation of a new crystal form would be associated with polymorphic transformations or solvate degradation found prior to the melting peak. Both IR spectra and DSC thermograms recorded for sediments were similar to pure phenacetin. […] As documented in Figure 1, both spectra are nearly identical as indicated by the differential plot.
It is notable that the temperature trends are linear, and it is reasonable to expect that a change of heat capacity values associated with melting ∆Cp would adopt a linear temperature relationship.
The calibration was performed using zinc and indium standards.

- thermal stability: stable
Compound: CCOc1ccc(NC(C)=O)cc1 [phenacetin, N-(4-ethoxyphenyl)acetamide]
